From patent publication EP2787003A1, “Antimicrobial peptide produced by marine sponge-derived Bacillus subtilis” (priority 2013, dated 2014)

Key:
Alteromonas sp. = experiment: Spot on lawn assay; assay type: cell-based; set-up: key to Antimicrobial activity, spot on lawn assay: +, clear halo of growth inhibition; ++: multiple +, increased activity as assessed visually by the increased diameter of the inhibition zone; +++: multiple +, increased activity as assessed visually by the increased diameter of the inhibition zone; ++++: multiple +, increased activity as assessed visually by the increased diameter of the inhibition zone; +++++: multiple +, increased activity as assessed visually by the increased diameter of the inhibition zone; -, no inhibition
Method: (§1) Antimicrobial activity of isolate MMA7 against the indicator strains was initially assessed with a deferred antagonism assay as described by Phelan et al. (2012). Subsequent testing of supernatants, crude extracts and purified compounds was carried out with a well and/or a spot on lawn assays. Essentially, 5 µl of samples were spotted onto 20 ml agar plates seeded with the indicator strain to a final OD600 of 0.015, or 30 µl aliquots were applied to a 5 mm well made on identical plates.

S. aureus = experiment: Spot on lawn assay; assay type: cell-based, Staphylococcus aureus NCDO 949; set-up: key: +, clear halo of growth inhibition; ++: multiple +, increased activity as assessed visually by the increased diameter of the inhibition zone; +++: multiple +, increased activity as assessed visually by the increased diameter of the inhibition zone; ++++: multiple +, increased activity as assessed visually by the increased diameter of the inhibition zone; +++++: multiple +, increased activity as assessed visually by the increased diameter of the inhibition zone; -, no inhibition; conditions: indicator S. aureus
Method: as §1

L. monocytogenes [1] = experiment: Spot on lawn assay; assay type: cell-based, Listeria monocytogenes EGDe; set-up: key: +, clear halo of growth inhibition; ++: multiple +, increased activity as assessed visually by the increased diameter of the inhibition zone; +++: multiple +, increased activity as assessed visually by the increased diameter of the inhibition zone; ++++: multiple +, increased activity as assessed visually by the increased diameter of the inhibition zone; +++++: multiple +, increased activity as assessed visually by the increased diameter of the inhibition zone; -, no inhibition; conditions: indicator L. monocytogenes
Method: as §1

A. hydrophila = experiment: Spot on lawn assay; assay type: cell-based, Aeromonas hydrophila LMG 2844; set-up: key to Antimicrobial activity, spot on lawn assay: +, clear halo of growth inhibition; ++: multiple +, increased activity as assessed visually by the increased diameter of the inhibition zone; +++: multiple +, increased activity as assessed visually by the increased diameter of the inhibition zone; ++++: multiple +, increased activity as assessed visually by the increased diameter of the inhibition zone; +++++: multiple +, increased activity as assessed visually by the increased diameter of the inhibition zone; -, no inhibition
Method: as §1

C. dubliniensis = experiment: Spot on lawn assay; assay type: cell-based, Candida dubliniensis; set-up: key: +, clear halo of growth inhibition; ++: multiple +, increased activity as assessed visually by the increased diameter of the inhibition zone; +++: multiple +, increased activity as assessed visually by the increased diameter of the inhibition zone; ++++: multiple +, increased activity as assessed visually by the increased diameter of the inhibition zone; +++++: multiple +, increased activity as assessed visually by the increased diameter of the inhibition zone; -, no inhibition; conditions: indicator C. dubliniensis
Method: as §1

α-chymotrypsin = α-chymotrypsin (Bos taurus, UniProt P00766); experiment: Susceptibility to proteolytic enzymes, bioactivity by spot on lawn assay; conditions: α-chymotrypsin 1 mg ml^-1, 37 °C, 1 h; indicator L. monocytogenes
L. innocua = experiment: Spot on lawn assay; assay type: cell-based, Listeria innocua DPC 3567; set-up: key: +, clear halo of growth inhibition; ++: multiple +, increased activity as assessed visually by the increased diameter of the inhibition zone; +++: multiple +, increased activity as assessed visually by the increased diameter of the inhibition zone; ++++: multiple +, increased activity as assessed visually by the increased diameter of the inhibition zone; +++++: multiple +, increased activity as assessed visually by the increased diameter of the inhibition zone; -, no inhibition; conditions: indicator L. innocua
Method: as §1

E. faecium = experiment: Spot on lawn assay; assay type: cell-based, Euterococcous faecium NCIMB 11508; set-up: key: +, clear halo of growth inhibition; ++: multiple +, increased activity as assessed visually by the increased diameter of the inhibition zone; +++: multiple +, increased activity as assessed visually by the increased diameter of the inhibition zone; ++++: multiple +, increased activity as assessed visually by the increased diameter of the inhibition zone; +++++: multiple +, increased activity as assessed visually by the increased diameter of the inhibition zone; -, no inhibition; conditions: indicator E. faecium
Method: as §1

L. monocytogenes [2] = experiment: Activity at different pH values, spot on lawn assay
C. perfringens = assay type: cell-based, Clostridium perfringens NCDO 1799; set-up: key: +, clear halo of growth inhibition; ++: multiple +, increased activity as assessed visually by the increased diameter of the inhibition zone; +++: multiple +, increased activity as assessed visually by the increased diameter of the inhibition zone; ++++: multiple +, increased activity as assessed visually by the increased diameter of the inhibition zone; +++++: multiple +, increased activity as assessed visually by the increased diameter of the inhibition zone; -, no inhibition; conditions: indicator C. perfringens
proteinase K = proteinase K (Parengyodontium album, UniProt P06873); experiment: Susceptibility to proteolytic enzymes, bioactivity by spot on lawn assay; conditions: proteinase K 1 mg ml^-1, 37 °C, 1 h; indicator L. monocytogenes
C. parapsilosis = experiment: Spot on lawn assay; assay type: cell-based, Candida parapsilosis; set-up: key: +, clear halo of growth inhibition; ++: multiple +, increased activity as assessed visually by the increased diameter of the inhibition zone; +++: multiple +, increased activity as assessed visually by the increased diameter of the inhibition zone; ++++: multiple +, increased activity as assessed visually by the increased diameter of the inhibition zone; +++++: multiple +, increased activity as assessed visually by the increased diameter of the inhibition zone; -, no inhibition; conditions: indicator C. parapsilosis
Method: as §1

C. lusitaniae = experiment: Spot on lawn assay; assay type: cell-based, Candida lusitaniae; set-up: key: +, clear halo of growth inhibition; ++: multiple +, increased activity as assessed visually by the increased diameter of the inhibition zone; +++: multiple +, increased activity as assessed visually by the increased diameter of the inhibition zone; ++++: multiple +, increased activity as assessed visually by the increased diameter of the inhibition zone; +++++: multiple +, increased activity as assessed visually by the increased diameter of the inhibition zone; -, no inhibition; conditions: indicator C. lusitaniae
Method: as §1

proteinase K, sequence (P06873 106-384): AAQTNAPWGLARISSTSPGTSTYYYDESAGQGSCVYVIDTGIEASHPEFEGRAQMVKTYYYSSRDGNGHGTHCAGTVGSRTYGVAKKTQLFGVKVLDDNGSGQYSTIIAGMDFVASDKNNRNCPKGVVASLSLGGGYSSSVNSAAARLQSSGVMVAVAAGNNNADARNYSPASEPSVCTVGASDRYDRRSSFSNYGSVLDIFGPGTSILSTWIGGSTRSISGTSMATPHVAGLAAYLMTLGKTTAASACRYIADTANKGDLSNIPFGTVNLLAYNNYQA

C=C1NC(=O)[C@@H]2CSC[C@@H](NC(=O)[C@@H]3CS[C@@H](C)[C@H]4NC(=O)[C@H](Cc5ccccc5)NC(=O)[C@H](NC(=O)[C@H](CCCNC(=N)N)NC(=O)[C@@H]5CSC[C@@H](NC(=O)[C@H](CCC(N)=O)NC(=O)[C@@H](NC(=O)[C@@H](NC(=O)/C(=C/C)NC(=O)[C@H](CCCCN)NC(=O)CNC(=O)[C@@H](NC(=O)/C(=C/C)NC(=O)[C@H](C)NC(=O)[C@H](Cc6c[nH]c7ccccc67)NC(=O)C(=O)CC)[C@@H](C)CC)[C@@H](C)CC)C(C)C)C(=O)N[C@@H](C(C)C)C(=O)N[C@@H](CCCCN)C(=O)N[C@@H](CCCCN)C(=O)N5)[C@H](C)SC[C@H](NC4=O)C(=O)NCC(=O)N3)C(=O)N[C@@H](CC(C)C)C(=O)NCC(=O)N[C@H](CSC[C@@H](C(=O)N[C@@H](CC(N)=O)C(=O)O)NC(=O)[C@H](CC(N)=O)NC1=O)C(=O)N2 [Subtilomycin]
Amount of peptide needed for detectable activity relative to that required to inhibit the Gram-positive indicators (Alteromonas sp.; Alteromonas sp.): four to five fold more peptide | Antimicrobial activity, spot on lawn assay (Alteromonas sp.; indicator Alteromonas sp., *activity only detected with 4 to 5 times more peptide than that used for the other indicators): +* | Antimicrobial activity, spot on lawn assay (S. aureus): + | Antimicrobial activity, spot on lawn assay (L. monocytogenes [1]): ++ | Amount of peptide needed for detectable activity relative to that required to inhibit the Gram-positive indicators (A. hydrophila; A. hydrophila): four to five fold more peptide | Antimicrobial activity, spot on lawn assay (A. hydrophila; indicator A. hydrophila, *activity only detected with 4 to 5 times more peptide than that used for the other indicators): +* | Antimicrobial activity, spot on lawn assay (C. dubliniensis): - | Antimicrobial activity after proteolytic treatment (α-chymotrypsin): None of the treatments resulted in a decrease of activity | Antimicrobial activity, spot on lawn assay (L. innocua): ++ | Antimicrobial activity, spot on lawn assay (E. faecium): - | Activity at different pH (L. monocytogenes [2]; pH 9, 1 h at room temperature): reduction in activity | Activity at different pH (L. monocytogenes [2]; pH range 2 to 8, 1 h at room temperature): fully active | Activity at different pH (L. monocytogenes [2]; pH values higher than 9 (up to 11)): no activity | Antimicrobial activity, spot on lawn assay (C. perfringens): - | Antimicrobial activity after proteolytic treatment (proteinase K): None of the treatments resulted in a decrease of activity | Antimicrobial activity, spot on lawn assay (C. parapsilosis): - | Antimicrobial activity, spot on lawn assay (C. lusitaniae): -
